{"source": "paper PMC10343299", "about": "“S-Ethyl-Isothiocitrullin-Based Dipeptides and 1,2,4-Oxadiazole Pseudo-Dipeptides: Solid Phase Synthesis and Evaluation as NO Synthase Inhibitors” (Molecules, 2023)", "key": {"[1]": {"molecular_target": "T1, bovine eNOS (Bos taurus, UniProt P29473)", "T1 construct": "Full-length recombinant rat nNOS, mouse iNOS, bovine eNOS; made in house; host or cells: Escherichia coli", "T1 sequence (P29473 whole entry)": "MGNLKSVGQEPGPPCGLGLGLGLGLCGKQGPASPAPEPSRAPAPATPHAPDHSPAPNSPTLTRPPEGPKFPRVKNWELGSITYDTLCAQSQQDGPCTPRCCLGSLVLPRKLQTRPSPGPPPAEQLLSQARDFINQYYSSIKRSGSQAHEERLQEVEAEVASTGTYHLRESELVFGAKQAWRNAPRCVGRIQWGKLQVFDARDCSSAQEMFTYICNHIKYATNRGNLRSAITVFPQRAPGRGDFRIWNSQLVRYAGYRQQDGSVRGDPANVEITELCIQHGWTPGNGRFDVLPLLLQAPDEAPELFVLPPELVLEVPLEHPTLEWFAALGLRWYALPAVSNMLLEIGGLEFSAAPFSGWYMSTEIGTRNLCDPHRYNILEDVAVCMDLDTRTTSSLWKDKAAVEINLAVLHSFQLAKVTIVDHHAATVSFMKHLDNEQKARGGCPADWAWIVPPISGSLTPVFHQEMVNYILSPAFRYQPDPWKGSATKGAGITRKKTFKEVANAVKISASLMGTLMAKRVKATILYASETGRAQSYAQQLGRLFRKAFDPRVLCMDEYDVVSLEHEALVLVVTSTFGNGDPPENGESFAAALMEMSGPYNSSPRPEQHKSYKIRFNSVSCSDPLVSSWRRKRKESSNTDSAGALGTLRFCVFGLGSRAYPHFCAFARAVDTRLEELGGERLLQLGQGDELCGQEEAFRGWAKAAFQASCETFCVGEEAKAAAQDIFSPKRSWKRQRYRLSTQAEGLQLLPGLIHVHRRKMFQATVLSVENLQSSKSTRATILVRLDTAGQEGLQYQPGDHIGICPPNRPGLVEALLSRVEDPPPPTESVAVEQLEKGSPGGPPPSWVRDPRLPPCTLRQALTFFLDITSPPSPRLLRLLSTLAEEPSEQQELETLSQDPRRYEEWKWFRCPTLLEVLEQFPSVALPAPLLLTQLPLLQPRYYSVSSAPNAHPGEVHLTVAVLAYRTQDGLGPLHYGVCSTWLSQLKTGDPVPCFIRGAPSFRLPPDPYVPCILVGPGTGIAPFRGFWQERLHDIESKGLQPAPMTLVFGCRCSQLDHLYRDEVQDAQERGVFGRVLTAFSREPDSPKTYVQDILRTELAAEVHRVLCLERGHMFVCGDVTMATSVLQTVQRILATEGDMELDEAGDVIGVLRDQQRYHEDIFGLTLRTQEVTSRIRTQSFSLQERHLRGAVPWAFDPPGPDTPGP", "assay": "NOS inhibition, oxyhemoglobin (hemoglobin capture) test, recombinant eNOS", "assay_type": "biochemical", "conditions": "dipeptide-like series; recombinant enzyme, 10 µM arginine, triplicate; NI = <50% inhibition at 100 μM; read-out: IC50 (μM) eNOS (Bovine)", "experimental": "The inhibitory effects of all compounds against the three recombinant NOSs (rat nNOS, mouse iNOS, and bovine eNOS) were evaluated in 96-well plates using the oxyhemoglobin test [53].\nNOS catalytic activity was measured using the hemoglobin capture assay [53]. The test was performed at 30 °C in 96-well microplates using a final volume of 200 µL. The assay mixture contained 100 µM NADPH, 10 µM BH4, 6 µM HbO2, 100 µM DTT, 5 µM FAD, 5 µM FMN, 10 µM (nNOS and eNOS), or 20 µM (iNOS) arginine, all in a 100 mM Hepes buffer, pH 7.5, and, for constitutive n- and e-NOS, 10 µg/mL calmodulin, and 1 mM CaCl2. The studied compounds were introduced as 2 μL of ×100 concentrated solutions in DMSO, and the control experiments were performed with DMSO or the buffer only. The kinetics of NO production were measured at 401 nm using an Infinite F500 microplate reader (Tecan, Singapore)."}, "[2]": {"molecular_target": "T2, mouse iNOS (Mus musculus, UniProt P29477)", "T2 construct": "Full-length recombinant rat nNOS, mouse iNOS, bovine eNOS; made in house; host or cells: Escherichia coli", "T2 sequence (P29477 1-1144)": "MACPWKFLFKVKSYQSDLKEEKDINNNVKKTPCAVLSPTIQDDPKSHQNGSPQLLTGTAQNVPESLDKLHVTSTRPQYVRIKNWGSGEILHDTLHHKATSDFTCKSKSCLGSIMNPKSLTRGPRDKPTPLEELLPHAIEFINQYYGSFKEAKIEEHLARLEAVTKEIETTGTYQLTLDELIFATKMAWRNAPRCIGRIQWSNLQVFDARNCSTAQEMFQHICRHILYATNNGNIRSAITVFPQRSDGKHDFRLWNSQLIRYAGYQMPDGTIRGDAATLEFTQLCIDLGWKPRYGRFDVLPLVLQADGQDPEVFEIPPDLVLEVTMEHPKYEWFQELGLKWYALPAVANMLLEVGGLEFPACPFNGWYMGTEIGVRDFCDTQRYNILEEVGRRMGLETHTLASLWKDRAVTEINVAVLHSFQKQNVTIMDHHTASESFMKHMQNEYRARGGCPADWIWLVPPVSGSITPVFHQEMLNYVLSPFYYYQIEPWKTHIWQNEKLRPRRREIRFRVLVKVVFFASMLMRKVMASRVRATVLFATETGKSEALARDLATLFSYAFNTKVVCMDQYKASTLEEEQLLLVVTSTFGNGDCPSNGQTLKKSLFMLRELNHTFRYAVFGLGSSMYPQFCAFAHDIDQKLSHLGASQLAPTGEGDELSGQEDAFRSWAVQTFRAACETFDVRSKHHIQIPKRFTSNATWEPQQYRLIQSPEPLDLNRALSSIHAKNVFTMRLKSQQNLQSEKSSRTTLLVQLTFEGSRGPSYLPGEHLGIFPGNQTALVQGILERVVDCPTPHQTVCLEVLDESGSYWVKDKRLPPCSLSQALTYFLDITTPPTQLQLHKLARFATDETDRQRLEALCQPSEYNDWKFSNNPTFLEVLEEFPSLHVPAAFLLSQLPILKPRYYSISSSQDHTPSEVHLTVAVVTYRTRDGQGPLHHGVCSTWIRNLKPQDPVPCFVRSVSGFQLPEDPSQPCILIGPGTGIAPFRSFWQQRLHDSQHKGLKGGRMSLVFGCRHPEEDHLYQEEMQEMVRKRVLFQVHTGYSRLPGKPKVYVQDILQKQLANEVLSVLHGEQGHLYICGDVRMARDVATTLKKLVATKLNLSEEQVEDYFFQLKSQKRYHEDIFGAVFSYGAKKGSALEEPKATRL", "assay": "NOS inhibition, oxyhemoglobin (hemoglobin capture) test, recombinant iNOS", "assay_type": "biochemical", "conditions": "dipeptide-like series, recombinant enzyme, 20 µM arginine, triplicate, NI = <50% inhibition at 100 μM", "summary_of_the_method": "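Full-length E. coli-expressed recombinant enzyme; NO formation followed kinetically at 401 nm via oxyhemoglobin capture at 30 °C in 100 mM Hepes pH 7.5 with NADPH, BH4, FAD, FMN, DTT; arginine 20 µM (iNOS) or 10 µM (nNOS, plus calmodulin and CaCl2). Screened at 100 and 10 μM; IC50 if >50% inhibition at 100 μM.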"}, "[3]": {"system": "INS-1 cells (nNOS)", "assay": "Glucose-induced insulin secretion", "assay_type": "cell-based", "conditions": "5.6 mM glucose, no IL-1β, 1 h, compounds 500 µM to 5 mM, L-NAME 5 mM", "description": "Indeed, pancreatic β-cells are known to constitutively express the nNOS isoform, which negatively modulates glucose-induced insulin secretion.\nThe insulin-secreting cell line INS-1 (a gift from Prof. C. Wolheim, Geneva, Switzerland) was cultured in RPMI-1640 supplemented with 10% FCS, 100 units/mL penicillin, 100 µg/mL streptomycin, 2 mM L-glutamine, 10 mM HEPES, 1 mM sodium pyruvate, and […] 2-mercaptoethanol, according to M. Asfari et al.’s method.\nThe functional effects of compounds were evaluated on INS-1 cells. Cells were preincubated for 1 h at 37 °C in a Krebs–Ringer bicarbonate buffer (108 mM NaCl, 1.19 mM KH2PO4, 4.74 mM KCl, 2.54 mM CaCl2, 1.19 mM MgSO4·7H2O, and 18 mM NaHCO3) containing 2 g/L BSA in the absence of glucose. After removal of the medium, the cells were stimulated for another hour at 37°C in the same buffer in the presence of 5.6 mM glucose and the presence of increasing concentrations of L-NAME or compounds (from 500 µM to 5 mM). At the end of the incubation period, the medium was collected, and the insulin was measured using an insulin high-range assay kit (CisBio, Codolet, France). Data are expressed as means ± SEM of the experiments (indicated in the result part)."}}, "data": [{"smiles": "CCSC(=N)NCCC[C@H](N)C(=O)N[C@H]1CCCN(Cc2ccccc2)C1", "note": "[Compound 7]", "values": [{"measurement": "inhibition at 100 µM", "setting": "[1]", "result": "< 50", "unit": "%"}, {"measurement": "IC50", "setting": "[2]", "result": 73.4, "unit": "µM"}, {"measurement": "Effect on insulin secretion", "setting": "[3]", "result": "dose-dependently stimulate glucose insulin secretion with better efficiency than L-NAME"}]}, {"smiles": "CCSC(=N)NCCC[C@H](N)C(=O)N[C@H]1CCCN(Cc2ccc(Cl)c(C(F)(F)F)c2)C1", "note": "[Compound 17]", "values": [{"measurement": "inhibition at 100 µM", "setting": "[1]", "result": "< 50", "unit": "%"}, {"measurement": "IC50", "setting": "[2]", "result": 12.9, "unit": "µM"}, {"measurement": "Effect on insulin secretion", "setting": "[3]", "result": "dose-dependently stimulate glucose insulin secretion with better efficiency than L-NAME"}]}, {"smiles": "CCSC(=N)NCCC[C@H](N)C(=O)N[C@H]1CCCN(Cc2cccc(-c3cccc(C(=O)O)c3)c2)C1", "note": "[Compound 27]", "values": [{"measurement": "inhibition at 100 µM", "setting": "[1]", "result": "< 50", "unit": "%"}, {"measurement": "inhibition at 100 µM", "setting": "[2]; read-out: IC50 (μM) iNOS (Mouse)", "result": "< 50", "unit": "%"}, {"measurement": "Effect on insulin secretion", "setting": "[3]", "result": "dose-dependently stimulate glucose insulin secretion with better efficiency than L-NAME"}]}]}
